Assay results published in patent publication US8518953B2, “Aminopyrimidines useful as inhibitors of protein kinases” (Vertex Pharmaceuticals Incorporated, priority 2007, dated 2013).

Tests used:
rats subjected to MCAO = test: Post Stroke Recovery MCAO Model: Gridwalk; format: in vivo, rat; settings: 7 and 14 days after stroke
Excerpt: Adult male Wistar rats are pre-trained on a battery of behavioral tests including: tray reach, […], forelimb asymmetry (cylinder bracing), forelimb inhibition (swim test) (see below for detailed description of tests). Following pre-stroke behavioral assessment the rats receive surgery during which a stroke is induced. The rats are pseudo-randomly divided into 5 equal groups (n=12) ensuring an equal number of right and left strokes within each treatment group. The first group receives sham surgery with vehicle as treatment. Administration of the test compound and vehicle (dose, route, timing) is determined by the sponsor. The core body temperature is maintained at 37° C. (+/-1°). Following surgery all animals are behaviorally assessed 1, 7, and 14 d post-stroke. At the conclusion of behavioral assessment all rats undergo an MRI to determine infarct volume. […] Rectal temperature is monitored and maintained at 37 C+/-1° C. for the duration of the surgery and until the rat is awake and mobile (approximately 3 hr). […] Forelimb and hindlimb coordination are measured using an apparatus that consists of two Plexiglas panels 1 m long and 25 cm wide (5 mm thick) with holes drilled 1 cm apart along one long edge. […]

GSK-3β (AA 1-420) = target: T1, GSK-3β (AA 1-420) (Homo sapiens, UniProt P49841); test: GSK-3 Inhibition Assay (standard coupled enzyme system); format: biochemical; settings: 20 μM ATP, 300 μM peptide, 20 nM GSK-3β, 30° C.
T1 construct: GSK-3β (AA 1-420)
T1 sequence (P49841 whole entry, species assumed, the tested form may be a part): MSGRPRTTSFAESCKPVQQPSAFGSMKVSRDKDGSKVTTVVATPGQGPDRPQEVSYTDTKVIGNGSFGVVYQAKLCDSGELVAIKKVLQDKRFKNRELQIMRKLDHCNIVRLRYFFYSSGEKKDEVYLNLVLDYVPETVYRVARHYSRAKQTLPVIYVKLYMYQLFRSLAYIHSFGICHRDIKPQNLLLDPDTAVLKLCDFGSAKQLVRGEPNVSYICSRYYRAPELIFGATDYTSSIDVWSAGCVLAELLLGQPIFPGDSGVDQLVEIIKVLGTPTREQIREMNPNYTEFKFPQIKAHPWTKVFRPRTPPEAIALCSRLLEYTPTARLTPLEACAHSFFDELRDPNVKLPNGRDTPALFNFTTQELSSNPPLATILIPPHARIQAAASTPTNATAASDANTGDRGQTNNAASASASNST
Description: Compounds of the present invention were screened for their ability to inhibit GSK-3β (AA 1-420) activity using a standard coupled enzyme system (Fox et al., Protein Sci. 1998, 7, 2249). Reactions were carried out in a solution containing 100 mM HEPES (pH 7.5), 10 mM MgCl2, 25 mM NaCl, 300 μM NADH, 1 mM DTT and 1.5% DMSO. Final substrate concentrations in the assay were 20 μM ATP (Sigma Chemicals, St Louis, Mo.) and 300 μM peptide (American Peptide, Sunnyvale, Calif.). Reactions were carried out at 30° C. and 20 nM GSK-3β. Final concentrations of the components of the coupled enzyme system were 2.5 mM phosphoenolpyruvate, 300 μM NADH, 30 μg/ml pyruvate kinase and 10 μg/ml lactate dehydrogenase.
An assay stock buffer solution was prepared containing all of the reagents listed above with the exception of ATP and the test compound of the present invention. The assay stock buffer solution (175 μl) was incubated in a 96 well plate with 5 μl of the test compound of the present invention at final concentrations spanning 0.002 μM to 30 μM at 30° C. for 10 min. […] Rates of reaction were obtained using a Molecular Devices Spectramax plate reader (Sunnyvale, Calif.) over 10 min at 30° C. The Ki values were determined from the rate data as a function of inhibitor concentration.

**Q.** How did the deficit in gridwalk (rats subjected to MCAO) turn out when `Cc1nc(-c2ccccc2Cl)nc(Nc2n[nH]c3ncc(F)cc23)c1C` [Compound I-1, N-(2-(2-chlorophenyl)-5,6-dimethylpyrimidin-4-yl)-5-fluoro-1H-pyrazolo[3,4-b]pyridin-3-amine] was run?
**A.** significantly ameliorated this deficit

**Q.** What about the Ki (GSK-3β (AA 1-420)) of the same compound?
**A.** < 5 nM
